Assay: solvent given as SMILES
[1] = in O=P(c1ccccc1)(c1ccccc1)c1ccccc1Oc1ccccc1P(=O)(c1ccccc1)c1ccccc1

SMILES: COc1ccc(/N=N/c2c(O)c3ccccc3n(C)c2=O)c(S(=O)(=O)O)c1
- emission maximum (in C1CCOC1): 527 nm
- emission maximum (in CC(C)=O): 528 nm
- emission maximum (in CCOC(C)=O): 525 nm
- emission maximum (in CO): 532 nm
- emission maximum (in CS(C)=O): 548 nm
- emission maximum (in Cc1ccccc1): 519 nm
- emission maximum (in ClCCl): 542 nm
- emission maximum (in O): 583 nm

SMILES: CC(C)(C)/C=C1\C=C(c2ccccc2)C=C1c1ccccc1
- emission maximum (in C1CCOC1): 460 nm

SMILES: CN(C)c1ccc(/C=C/c2cnc(-c3ccncc3)o2)cc1
- emission maximum (in ClCCl): 550 nm

SMILES: N#Cc1c(-n2c3ccccc3c3ccccc32)cccc1-n1c2ccccc2c2ccccc21
- emission maximum (in Cc1ccccc1): 403 nm
- emission maximum [1]: 415 nm

SMILES: CN(C)c1ccc(C2=C3C=C(c4ccc(C#N)cc4)S[C@]34c3ccccc3[C@H]2c2ccccc24)cc1
- emission maximum (in ClCCl): 601 nm

SMILES: COc1ccc(C2=[N+]3C(=Nc4c(-c5cc(OC)c(OC)c(OC)c5Br)c(-c5ccc(C(C)(C)C)cc5)c(-c5ccc(OC)cc5)n4[B-]3(F)F)C(c3cc(OC)c(OC)c(OC)c3Br)=C2c2ccc(C(C)(C)C)cc2)cc1
- emission maximum (in Cc1ccccc1): 740 nm

SMILES: COc1ccc(-c2cnc3cccc(-c4ccc(C(C)=O)cc4)n23)cc1
- emission maximum (in ClCCl): 537 nm

SMILES: CC1=CC(/C=C/c2ccc(OCCCN=[N+]=[N-])cc2)=[N+]2C1=C(c1ccc(N(C)C)cc1)c1c(C)cc(C)n1[B-]2(F)F
- emission maximum (in CO): 586 nm

SMILES: N#CC(C#N)=Cc1ccc2c(c1)c1ccccc1n2-c1cc2ccccc2c2ccccc12
- emission maximum (in CC#N): 503 nm
- emission maximum (in CCCCC): 451 nm
- emission maximum (in Cc1ccccc1): 445 nm
- emission maximum (in ClCCl): 480 nm

SMILES: CCCCn1c2ccc(/C=C(\C#N)c3ccc([N+](=O)[O-])cc3)cc2c2cc(Cn3c(-c4ccc5c(c4)c4ccccc4n5CCCC)nc4ccccc43)ccc21
- emission maximum (in C1CCOC1): 539 nm
- emission maximum (in CC#N): 580 nm
- emission maximum (in CCO): 520 nm
- emission maximum (in CCOC(C)=O): 528 nm
- emission maximum (in CN(C)C=O): 581 nm
- emission maximum (in ClCCl): 568 nm
- emission maximum (in O): 570 nm
- emission maximum (in c1ccccc1): 505 nm

SMILES: COc1ccc(-c2nc(-c3ccccc3)c(N(C)C)[se]2)cc1
- emission maximum (in ClC(Cl)Cl): 438 nm

SMILES: F[B-]1(F)OC(c2ccc(C(F)(F)F)cc2)=Cc2c3ccccc3c3ccccc3[n+]21
- emission maximum (in ClC(Cl)Cl): 446 nm

SMILES: Fc1nc(F)c(F)c(C#Cc2ccccc2C#Cc2c(F)c(F)nc(F)c2F)c1F
- emission maximum (in CC#N): 370 nm

SMILES: COCCC1(CCOC)c2cc(-c3ccc(OC)cc3)ccc2-c2ccc(-c3ccc4c(c3)C(CCOC)(CCOC)c3cc(-c5ccc(OC)cc5)ccc3-4)cc21
- emission maximum (in CN(C)C=O): 395 nm

SMILES: N#Cc1c(-c2ccccc2)cc(-c2ccccc2)[nH]c1=S
- emission maximum (in C1CCCCC1): 510 nm
- emission maximum (in C1COCCO1): 512 nm
- emission maximum (in CC#N): 495 nm
- emission maximum (in CCCCO): 506 nm
- emission maximum (in CCCO): 493 nm
- emission maximum (in CCO): 465 nm
- emission maximum (in CCOC(C)=O): 502 nm
- emission maximum (in CCOCC): 518 nm
- emission maximum (in CN(C)C=O): 505 nm
- emission maximum (in ClC(Cl)(Cl)Cl): 510 nm

SMILES: c1ccc(-c2nc(-c3ccccc3)nc(-c3ccc(-n4c5ccccc5c5cc(-n6c7ccccc7c7ccccc76)ccc54)cc3)n2)cc1
- emission maximum (in Cc1ccccc1): 458 nm
- emission maximum [1]: 475 nm

SMILES: CCC1=C(C)C2=Cc3cscc3B(O)N2C1=O
- emission maximum (in CC#N): 412 nm
- emission maximum (in CCCCCC): 396 nm
- emission maximum (in CO): 418 nm
- emission maximum (in CS(C)=O): 425 nm
- emission maximum (in ClC(Cl)Cl): 414 nm

SMILES: Cc1ccc2c(nc3c(=O)n(C)c(=O)nc-3n2C)c1C
- emission maximum (in CC#N): 543 nm

SMILES: COc1ccccc1C1=[N+]2C(=Cc3c4c(c(-c5ccccc5OC)n3[B-]2(F)F)C2CCC4CC2)C2=C1C1CCC2CC1
- emission maximum (in ClCCl): 583 nm

SMILES: Cc1cc(C)c(C2=C3C=CC(c4ccc5ccccc5c4)=[N+]3[B-](F)(F)n3c2ccc3-c2ccc3ccccc3c2)c(C)c1
- emission maximum (in ClC(Cl)Cl): 618 nm

SMILES: CC(=O)c1ccc(NC(=O)c2ccc(N(C)C)cc2)cc1
- emission maximum (in C1CCCCC1): 345 nm
- emission maximum (in C1CCOC1): 468 nm
- emission maximum (in CC#N): 550 nm
- emission maximum (in CCOCC): 470 nm

SMILES: O=P1(c2ccccc2)C(c2ccc(N(c3ccccc3)c3ccccc3)cc2)=Cc2ccccc21 (stereo not given)
- emission maximum (in C1CCOC1): 521 nm
- emission maximum (in CC#N): 577 nm
- emission maximum (in CN(C)C=O): 566 nm
- emission maximum (in Cc1ccccc1): 490 nm
- emission maximum (in ClC(Cl)Cl): 529 nm
- emission maximum (in ClCCl): 544 nm

SMILES: CCN1CCCc2cc3c(cc21)Oc1cc2c(cc1=N3)C(CS(=O)(=O)[O-])CC(C)(C)[N+]=2CCCC(=O)[O-] (stereo not given)
- emission maximum (in O): 690 nm

SMILES: CC(C)(C)c1ccc(-c2nc3c4ccc(-c5ccc6ccc7cccc8ccc5c6c78)cc4c4cc(-c5ccc6ccc7cccc8ccc5c6c78)ccc4c3n2-c2ccc(C(C)(C)C)cc2)cc1
- emission maximum (in C1CCOC1): 442 nm
- emission maximum (in C1COCCO1): 432 nm
- emission maximum (in CC#N): 460 nm
- emission maximum (in CCCCCC): 428 nm
- emission maximum (in CCCCOCCCC): 427 nm
- emission maximum (in CCN(CC)CC): 428 nm
- emission maximum (in CCOC(C)=O): 440 nm
- emission maximum (in CCOCC): 432 nm
- emission maximum (in CN(C)C=O): 459 nm
- emission maximum (in Cc1ccccc1): 433 nm
- emission maximum (in ClC=C(Cl)Cl): 437 nm
- emission maximum (in ClCCl): 450 nm
